Source: US8513437B2, “Pyrrolidino-1,4-naphthoquinone deriviatives and their use for treating malignancies and cardiovascular diseases” (Ben Gurion University of the Negev Research and Development …, priority 2004, dated 2013)
pIC50: −log10 of the molar value. Entries after “also recorded” stand apart in the source; their conditions may differ. Where two headings read alike, the source gives them in different places.

Columns and labels:
[1] = system: cardiomyocytes in rat heart; assay: Cardiomyocyte proliferation following direct injection in-vivo (PCNA staining); details: direct injection into rat heart, 0.5, 5 and 50 microM, three days, versus saline
Protocol: Proliferation of cardiomyocytes was evaluated in-vivo following direct injection of EH48 in three concentrations (0.5, 5 and 50 microM) into rat heart. Three days after injections rats were sacrificed and the hearts were fixed with formaldehyde 4%. Slides of 5 micron were stained with the DNA specific marker PCNA. Only cells with morphology of cardiomyocytes (large cells with striation) that expressed the PCNA in the nucleus (brown staining) were considered as proliferate cardiomyocytes (FIG. 6A, arrows). The number of stained cells in each treatment was evaluated compared to control (saline injected) rats (FIG. 6B).

cardiomyocytes = assay: Cardiomyocyte viability (XTT) following incubation with EH48; type: cell-based, rat; details: cardiomyocytes starved 16-18 h, compound 24 h, XTT 4 h, FIG. 5
Protocol: (§1) The cell viability was examined using the XTT method following kit instructions (Biological Industry, Israel). The assay is based on the ability of metabolic active cells to reduce the tetrazolium salt XTT to orange colored compound of formazan. The dye formed is water soluble and the dye intensity can be read with spectrophotometer at 450-500 nm. The intensity of the dye is proportional to the number of metabolic active cells.
(§2) The viability of the cells was measured as described above. Briefly, cells were starved for 16-18 h followed by incubation with the compound of formula II (EH48) for 24 h and incubation with XTT for an other 4 h. The assay is based on the ability of metabolic active cells to reduce the tetrazolium salt XTT to orange colored compound of formazan. The intensity of the dye is proportional to the number of metabolically active cells.

p38-MAPK [2] = assay: Western immunoblot, p38-MAPK phosphorylation in cardiomyocytes; type: cell-based, rat; details: 0.5-10 μM, 20 min, 37° C., FIG. 1B
Protocol: (§3) The effect of the compounds of formula I on ERKs and p38-MAPK was checked in cardiomycetes. […] Stimulation of the MAPKs members by compounds of the invention was compared with the stimulation by the growth factor Ang (Angiotensin II, 10 nM, 10 min), which is known as MAPKs stimulator in cardiomyocytes. […] ERKs and p38 were related to the total amount of ERKs proteins in the sample. […] As explained, the ERKs signaling pathway participate in the cell survival and proliferation. Administering the compounds stimulating this pathways after myocardial infarction may accelerate cell survival of the cardiomyoctes; alternatively, said compounds may be administered as a preventing drug before the injury occurs in risk cases.

ERKs [3] = assay: Western immunoblot, ERKs phosphorylation in cardiomyocytes; type: cell-based, rat; details: 0.5-10 μM, 20 min, 37° C., FIG. 1B
Protocol: as §3

[4] = system: HT29 human colon carcinoma cells; assay: Apoptosis of HT29 cells (DNA fragmentation, PI staining); type: cell-based; details: 48 h incubation
Protocol: The various cell types were incubated with a compound of formula I (0.3-25 μM) for 24-48 h. Untreated cells were served as control. After trypsinization, cells were centrifuged for 5 min, 1500 g and resuspended in DMEM medium contains 10% FCS. Sample of the cells (25 μl) was added to 2 μl mixture of (5 μg/ml) ethidium bromide and (5 μg/ml) acridine orange in PBS. Sample of the stained cells was examined under fluorescent microscope. Ethidium bromide binds to the DNA of damaged cells and stains it orange, while acridine orange stains the nucleus in green. Apoptotic cells appear as nuclei with orange staining of fragmented DNA.
HT29 cells, either untreated or treated 48 h with a compound of formula I (25 μM), after trypsinization, were collected and centrifuged for 5 min, 800 g. The pellet was resuspended with PBS and centrifuged again. 60 μl of PBS was added to the pellet followed by addition of 360 μl of ice-cold 80% ethanol and incubating overnight at −20° C. The cells were thawed on ice and centrifuged for 5 min 800 g 4° C. […] Analysis was carried out by fluorescence-activated flow cytometer (FACSscan).
Apoptosis was evaluated following incubation of 48 h with compound TW 69 using DNA fragmentation method (ethidium bromide staining) and PI (propidium iodide) staining assay, as described above. […]

ERKs [5] = assay: Western immunoblot, ERKs phosphorylation in VSM cells; type: cell-based, rat; details: 0.5-20 μM, 20 min, 37° C., FIG. 1A
Protocol: (§4) Stimulation of ERKs and p38-MAPKs with compounds of the invention was characterized in VSM cells and cardiomyocytes. […] As a positive control for ERKs activation, the cells were incubated with 10^−7M EGF for 5 minutes. […] Therefore, this compound and other derivates may be used as selective compounds to inhibit or stimulate one of the members in the MAPKs-signaling pathway.

[6] = system: primary cardiomyocytes derived from neonatal rats; assay: Cell viability (XTT) of cardiomyocytes; type: cell-based, rat; details: for injury of cardiomyocytes at concentrations killing VSM cells: cardiomyocytes versus VSM cells; for pIC50: 24 h incubation with compound, then XTT 4 h, read-out: ID50 Cardiomyocytes
Protocol: (§5) Three main cell types of the cardiovascular system were evaluated: primary cardiomyocytes derived from neonatal rats primary vascular smooth muscle (VSM) cells derived from rat aorta and human umbilical vein endothelial cells. Furthermore, human colon carcinoma HT29 cells and BL6-8 melanoma cells were evaluated as representative cancer cells. The cells were prepared as described previously in Etzion S. et al.: JMCC 33 (2001) 1321-30; Granot Y. et al.: JBC 268 (1993) 9564-9; the ATCC (the Global Bioresource Center™); and Assa-Kunik et al.: J. Immunol. 171 (2003) 2945-52.
as §1
The viability of the cells was measured as described above. Briefly, cells were incubated with the compounds for 24 h followed by incubation with XTT for 4 h. The assay is based on the ability of metabolic active cells to reduce the tetrazolium salt XTT to orange colored compound of formazan. The intensity of the dye is proportional to the number of metabolically active cells. The concentration at which 50% cells remain viable, ID50, is shown in Table 1 for several compounds of the invention.

p38-MAPK [7] = assay: Western immunoblot, p38-MAPK phosphorylation in VSM cells; type: cell-based, rat; details: 0.5-20 μM, 20 min, 37° C., FIG. 1A
Protocol: as §4

[8] = system: HT29 human colon carcinoma cells; assay: Viability of HT29 human colon carcinoma cells; type: cell-based; details: 24 h incubation; read-out: ID50 HT29-colon carcinoma
Protocol: as §5, §1
HT29 human carcinoma cells were incubated for 24 h with compounds of the invention.

[9] = system: primary vascular smooth muscle (VSM) cells derived from rat aorta; assay: Cell viability (XTT) of VSM cells; type: cell-based; details: 24 h incubation with compound, then XTT 4 h; read-out: ID50 VSM cells
Protocol: as §5, §1
as §2, with “incubated with the compounds” for “starved”, “24” for “16-18”, “with” for “with the compound of formula II (EH48) for 24 h and incubation with”, “for” for “for an other”, “cells. […]” for “cells.”

[10] = system: human umbilical vein endothelial cells; assay: Cell viability (XTT) of endothelial cells; type: cell-based; details: 24 h incubation with compound, then XTT 4 h; read-out: ID50 Endothelial cells
Protocol: as §5, §1
as §2, with “incubated with the compounds” for “starved”, “24” for “16-18”, “with” for “with the compound of formula II (EH48) for 24 h and incubation with”, “for” for “for an other”, “cells. […]” for “cells.”

STAT3 = assay: Western immunoblot, STAT3 phosphorylation in VSM cells; details: VSM cells activated with AVP, FIG. 2
Protocol: (§6) Confluent cell monolayers were growth-arrested in serum-free medium for 24 h prior to treatment with the compounds in this patent. Cells were washed twice with medium, scraped, resuspended in lysis buffer (10% glycerol, 25 mM NaCl, 0.1% Triton X-100, 50 mM NaF, 10 mM Na-pyrophosphate, 2 mM EGTA, 2 mM DTT, 20 mM p-nitro-phenylphosphate, 25 mM Tris-HCl, 2 mM Na2VO4, 10 μM PMSF, 10 μg/ml Leupeptin), and the lysate was centrifuged at 14,000 rpm for 20 min. Samples were separated by SDS-polyacrylamide gel electrophoresis, transferred to nitrocellulose membrane, and blocked for 1 h at room temperature with 5% nonfat milk in TBS-T buffer (20 mM Tris, 500 mM NaCl, and 0.01% Tween 20). The membrane was then incubated overnight at 4° C. with an appropriate dilution of anti-phospho-ERKs or anti-total ERK, anti-phospho-p38 or anti-phospho-JNK, followed by incubation for 1 h with the appropriate horseradish peroxidase-conjugated secondary antibody. The immunoblot signal was visualized through enhanced chemiluminescence.

ERKs survival pathway = assay: Western immunoblot, ERKs phosphorylation in BL6-8 melanoma cells; details: FIG. 3B
Protocol: as §6
The cells were starved for 24 h in serum free medium, incubated with the selected compound (5-25 μM) for 20 min to 4 h (dependent on the compound examined), 37° C., harvested, centrifuged and suspended in the lysis buffer. The MAPKs stimulation was estimated using the western immunoblot analysis as described above.

ERKs [11] = details: HT29 cells, 5-25 μM, 20 min to 4 h, FIG. 3A
P38 pathway = assay: Western immunoblot, p38 phosphorylation in BL6-8 melanoma cells; type: cell-based; details: FIG. 3B

| SMILES | survival and proliferation of cardiomyocytes in-vivo (PCNA-stained cells) [1] | XTT dye intensity (cell survival and viability) (cardiomyocytes) | stimulation of p38-MAPK signaling pathway (p38-MAPK [2]) | stimulation of ERKs signaling pathway (ERKs [3]) | acceleration of apoptotic response [4] | stimulation of ERKs signaling (ERKs [5]) | injury of cardiomyocytes at concentrations killing VSM cells [6] | stimulation of p38-MAPK signaling (p38-MAPK [7]) | pIC50 [8] | pIC50 [9] | pIC50 [6] | pIC50 [10] | inhibition of STAT3 phosphorylation (STAT3) | stimulation of ERKs survival pathway (ERKs survival pathway) | stimulation of ERKs signaling pathway (ERKs [11]) | stimulation of P38 pathway (P38 pathway) |
| --- | --- | --- | --- | --- | --- | --- | --- | --- | --- | --- | --- | --- | --- | --- | --- | --- |
| COC(=O)[C@@H]1CCCN1C1=C(Cl)C(=O)c2ccccc2C1=O [EH48, 2-chloro-3-(L-prolinemethyl ester)-1,4-naphthoquinone] | positive in-vivo effect | increase in cell survival and viability; also recorded: XTT elevation | – | – | – | – | – | – | – | – | – | – | – | – | – | – |
| Cc1ccc(NC2=C(Cl)C(=O)c3ccccc3C2=O)cc1 [TW69, 2-chloro-3-(p-methylphenylamino)-1,4-naphthoquinone] | – | – | without significantly influencing the p38-MAPK signaling pathway; also recorded: without inducing the formation of phosphorylated p38 protein | stimulate mainly the ERKs signaling pathway; also recorded: induced the formation of phosphorylated ERKs protein | 30% | stimulate both ERKs and p38-MAPKs signaling | did not injure the cardiomyocytes at concentrations killing VSM cells | stimulate both ERKs and p38-MAPKs signaling | – | – | – | – | – | – | – | – |
| Cc1ccc(NC2=C(N3CCCC3)C(=O)c3ccccc3C2=O)cc1 [TW85, 2-pyrrolidine-3-(p-methylphenylamino)-1,4-naphthoquinone] | – | – | not the p38-MAPK signaling pathway; also recorded: without inducing the formation of phosphorylated p38 protein | stimulates the ERKs signaling pathway; also recorded: induced the formation of phosphorylated ERKs protein | – | – | – | – | 5.46 | 5.44 | < 4.70 | 6.10 | – | – | – | – |
| O=C1C(Nc2ccc(O)cc2)=C(N2CCCC2)C(=O)c2ccccc21 [TW96, 2-pyrrolidine-3-(p-hydroxy-phenylamino)-1,4-naphthoquinone] | – | – | – | – | – | – | did not injure the cardiomyocytes at concentrations killing VSM cells | stimulates mostly the P38-MAPK | 6.30 | 6.70 | 6.40 | 6.30 | strong inhibitor of STAT3 phosphorylation | without stimulating the ERKs survival pathway | without significantly influencing the ERKs signaling pathway | specifically stimulate the P38 pathway |
